Literature values in the CATMoS acute toxicity set (Mansouri et al. 2021).
Several values for one entry are separate records, joined by “and”; a condition that tells them apart may be missing. Identical values can stand only once.

Test: rat acute oral toxicity
Details: in vivo

C[C@]12CCC(=O)C=C1CC[C@@H]1[C@@H]2[C@@H](O)C[C@@]2(C)[C@H]1CC[C@]2(O)C(=O)COP(=O)(O)O
LD50: 6100 mg/kg

CON(C)C(=O)Nc1ccc(Br)c(Cl)c1
LD50: 2150 mg/kg

C=COCCO
LD50: 3910 mg/kg

CC(C)CC(=O)OCCc1ccccc1
LD50: 6220 mg/kg

O=C(CCl)OCCOCCO
LD50: 770 mg/kg

O=C1OC(CCN2CCCCC2)OC1(c1ccccc1)c1ccccc1 (stereo unspecified)
LD50: 1500 mg/kg

NCCNCCO
LD50: 3000 mg/kg

NC(=S)Nc1ccccc1Cl
LD50: 4.6 mg/kg

C=CCC(CC)(CC)C(N)=O
LD50: 400 mg/kg

CC(CC(=O)O)CC(C)(C)C (stereo unspecified)
LD50: 1160 mg/kg

C=CC(=O)NC(OC)C(=O)OC (stereo unspecified)
LD50: 2090 mg/kg

C=C(OP(=O)(OC)OC)P(=O)(OC)OC
LD50: 287 mg/kg

Cc1nn(C)c(OCC(=O)c2ccccc2)c1C(=O)c1ccc(Cl)cc1Cl
LD50: 1640 mg/kg

CCNc1nc(NCC)nc(OC)n1
LD50: 535 mg/kg

CC(C)(N)Cc1ccccc1
LD50: 188 mg/kg

CC[C@H]1CN2CCc3cc(OC)c(OC)cc3[C@@H]2C[C@@H]1C[C@H]1NCCc2cc(OC)c(OC)cc21
LD50: 0.012 mg/kg

Cc1cc(Br)ccc1-n1c(C)nc2ccccc2c1=O
LD50: 240 mg/kg

O=C(O)c1snc(Cl)c1Cl
LD50: 1200 mg/kg

CCCOP(=S)(OC)SCN1C(=O)c2ccccc2C1=O (stereo unspecified)
LD50: 90 mg/kg

CN(C)CCN(Cc1cccs1)c1ccccn1
LD50: 200 mg/kg

CC(C)=CCN(CC=C(C)C)CCC(C(N)=O)c1cccc2ccccc12 (stereo unspecified)
LD50: 353 mg/kg

CCCCOC(=O)/C=C\C(=O)OCCCC
LD50: 3700 mg/kg

O=[N+]([O-])c1ccccc1C1OCC(CCl)O1 (stereo unspecified)
LD50: 65 mg/kg

CCOC(=O)CN1CCN(C(=O)C=Cc2cc(OC)c(OC)c(OC)c2)CC1
LD50: 4190 mg/kg

CCCCNC(=O)c1ccccc1
LD50: 5140 mg/kg

c1cc2c(cc1CCC(CCc1ccc3c(c1)OCO3)N1CCCC1)OCO2
LD50: 565 mg/kg

CN1CCC(=C2c3ccccc3C=Cc3ccccc32)CC1
LD50: 295 mg/kg

CC1=CC(=O)C(C(C)C)CC1 (stereo unspecified)
LD50: 2450 mg/kg

Cn1c(=N)oc2ccc(Cl)cc21
LD50: 1000 mg/kg

CCOC(=O)c1ccc([N+](=O)[O-])cc1
LD50: 2660 mg/kg

CCc1cc2c(cc1C(C)=O)C(C)(C)CCC2(C)C
LD50: 260 mg/kg

CS(=O)(=O)OCCCNCCCOS(C)(=O)=O
LD50: 108 mg/kg

CC(C)(C#N)Nc1nc(Cl)nc(NC2CC2)n1
LD50: 290 mg/kg

OC(CCN1CCCCC1)(c1ccccc1)C1CCCCC1 (stereo unspecified)
LD50: 1630 mg/kg

Cc1cc(=O)oc2cc(O)ccc12
LD50: 3850 mg/kg

CN1CCN(C2=Nc3ccccc3Cc3ccccc32)CC1
LD50: 660 mg/kg

CCN[C@H](C)Cc1cccc(C(F)(F)F)c1
LD50: 195 mg/kg

CCC(C(O)c1ccc2[nH]c(=O)ccc2c1)N1CCN(c2cccc(Cl)c2)CC1 (stereo unspecified)
LD50: 500 mg/kg

CC(CN(C)C)CN1c2ccccc2Sc2ccccc21 (stereo unspecified)
LD50: 210 mg/kg

FC(F)(F)c1ccc(Cl)cc1
LD50: 13000 mg/kg

Clc1nc(Cl)nc(Nc2ccccc2Cl)n1
LD50: 2700 mg/kg

C=COCCSCC
LD50: 4920 mg/kg

Cc1ccc(/N=C/NSN(Cc2ccccc2)Cc2ccccc2)c(C)c1
LD50: 1050 mg/kg

Oc1ccc(-c2ccccc2)cc1CN1CCCCC1
LD50: 30 mg/kg

COc1cc(Cc2cnc(N)nc2N)cc(OC)c1N(C)C
LD50: 1400 mg/kg

CC(C)OCC1CO1 (stereo unspecified)
LD50: 4200 mg/kg

ClC(Cl)=C1C(Cl)(Cl)C(Cl)=C(Cl)C1(Cl)Cl
LD50: 3700 mg/kg

CNCC(O)c1cccc(NS(C)(=O)=O)c1 (stereo unspecified)
LD50: 13 mg/kg

COc1ccc2c(c1)[C@@]13CCCC[C@H]1[C@@H](C2)N(C)CC3
LD50: 242 mg/kg

O=C(O)c1ccc2c(c1)CCC(Cn1ccnc1)C2 (stereo unspecified)
LD50: 1990 mg/kg

CCCCCC(C)(O)CC (stereo unspecified)
LD50: 3400 mg/kg

O=C1OC(=O)C2CC=CCC12 (stereo unspecified)
LD50: 5410 mg/kg

COC(C)(C)CCCC(C)C(C)O (stereo unspecified)
LD50: 4490 mg/kg

O=NN(CCO)CCO
LD50: 7500 mg/kg

CCCCCCCCCCCC=O
LD50: 23000 mg/kg

ClCCOCCC(OCCCl)OCCCl
LD50: 710 mg/kg

c1ccc2sc(SN(C3CCCCC3)C3CCCCC3)nc2c1
LD50: 6420 mg/kg

CC[N+](CC)(CC(=O)Nc1c(C)cccc1C)Cc1ccccc1
LD50: 584 mg/kg

CC(=O)N(CCN(C(C)=O)C(C)=O)C(C)=O
LD50: 7940 mg/kg

C[N+](C)(C)CC(O)CC(=O)O (stereo unspecified)
LD50: 6890 mg/kg

COCCOCCOCCOC(C)=O
LD50: 11000 mg/kg

CCNC(=O)C(C)OC(=O)Nc1ccccc1 (stereo unspecified)
LD50: 11000 mg/kg

S=c1[nH]c2ccccc2s1
LD50: 631 mg/kg

C#CC(O)C=CC (stereo unspecified)
LD50: 34 mg/kg

CCCC(=O)C1c2cccc(O)c2C(=O)c2c(O)cccc21
LD50: 1580 mg/kg

CCCCOC(=O)c1ccccc1Nc1cccc(C(F)(F)F)c1
LD50: 510 mg/kg

CCOP(=O)(O)O
LD50: 1600 mg/kg

O=C(O)CCCNS(=O)(=O)c1cccc(C(F)(F)F)c1
LD50: 13000 mg/kg

C=C(F)C(=O)OCC(F)(F)C(F)F
LD50: 60 mg/kg

CNCC1CCCCC1
LD50: 1410 mg/kg

CCCCCCCCCCCCCCCCCCP(=O)(OC)OC
LD50: 15400 mg/kg

OC[C@@H](O)[C@@H](O[C@@H]1O[C@H](CO)[C@H](O)[C@H](O)[C@H]1O)[C@H](O)[C@@H](O)CO
LD50: 30000 mg/kg and 27500 mg/kg

CC(N)CCN (stereo unspecified)
LD50: 1350 mg/kg

O=[N+]([O-])c1c(Br)ccc2[nH]c(C(F)(F)F)nc12
LD50: 13.5 mg/kg

CN(C)CCCN
LD50: 1870 mg/kg

CCO[Si](CCCS)(OCC)OCC
LD50: 6110 mg/kg

NCC1CCC(CN)CC1 (stereo unspecified)
LD50: 530 mg/kg

COc1cc(OC)c(C(=O)CCCN2CCCC2)c(OC)c1
LD50: 410 mg/kg

OC1CCc2ccccc21 (stereo unspecified)
LD50: 620 mg/kg

CC1CN1 (stereo unspecified)
LD50: 19 mg/kg

N#Cc1cc([N+](=O)[O-])ccc1Cl
LD50: 3200 mg/kg

S=c1[nH]nc(NCNc2n[nH]c(=S)s2)s1
LD50: 4640 mg/kg

O=S(=O)(SC(Cl)(Cl)Cl)C(Cl)Cl
LD50: 3620 mg/kg

NNc1ccccc1
LD50: 188 mg/kg

O=[N+]([O-])C(Br)(Br)CO
LD50: 29.1 mg/kg

C=CCOCC(CC)(CO)COCC=C
LD50: 6500 mg/kg

C=CCOc1ccccc1C(=O)NC1CCCCC1
LD50: 1200 mg/kg

Cc1cc(OCCO)cc(C)c1Cl
LD50: 3800 mg/kg

CCOC(=O)C(N)Cc1ccc(O)cc1 (stereo unspecified)
LD50: 13800 mg/kg

C(=NC1CCCCC1)c1ccccc1
LD50: 3080 mg/kg

CC(C)=CC1C(C(=O)O)C1(C)C (stereo unspecified)
LD50: 2500 mg/kg

CN(C)N(C)N=O
LD50: 95 mg/kg

CCOP(=S)(OCC)Oc1cc([N+](=O)[O-])c(Cl)cc1Cl
LD50: 100 mg/kg

O=C1C(Cl)=C(Cl)C(Cl)(Cl)C1(Cl)Cl
LD50: 178 mg/kg

CCC(C)NP1(=S)OCc2cc([N+](=O)[O-])ccc2O1 (stereo unspecified)
LD50: 125 mg/kg

CCOC(=O)C1=CNC2CCCC(C)N2C1=O (stereo unspecified)
LD50: 2500 mg/kg

CCC(CC)c1cccc(OC(=O)NC)c1
LD50: 87 mg/kg

CC(C)N(Sc1nc2ccccc2s1)C(C)C
LD50: 5200 mg/kg

CCN(CC)C(=O)CCl
LD50: 500 mg/kg

CN(N=O)c1ccc(N=O)cc1
LD50: 1370 mg/kg

CC1(C)COC(c2ccccc2)CN1 (stereo unspecified)
LD50: 450 mg/kg and 480 mg/kg

CC(C)(C)CCCCCCC(=O)O
LD50: 2070 mg/kg

C1C2OC2C2C1C1CC2C2OC12 (stereo unspecified)
LD50: 210 mg/kg

Cc1ccc(C)c([N+](=O)[O-])c1
LD50: 2440 mg/kg

CCOP(=S)(OCC)Oc1ccccc1[N+](=O)[O-]
LD50: 25 mg/kg

C=CC(C)(O)CCCCC (stereo unspecified)
LD50: 1800 mg/kg

O=C(CCCCC(=O)OC1CCCCC1)OC1CCCCC1
LD50: 16000 mg/kg

CN1CCC(n2[nH]c(-c3ccccc3)c(Cc3ccccc3)c2=O)CC1
LD50: 2700 mg/kg

CCCCC(CC)CNC(=O)CC(C)OC(=O)CCC(=O)O (stereo unspecified)
LD50: 12100 mg/kg

CNC(=O)Oc1cccc2c1OC(C)(C)CC2
LD50: 3 mg/kg

Cc1occc1C(=O)Nc1ccccc1
LD50: 12900 mg/kg

CC(C)[N+](C)(CCC(C(N)=O)(c1ccccc1)c1ccccc1)C(C)C
LD50: 1030 mg/kg

CN1CCCN=C1COC(=O)C(O)(c1ccccc1)C1CCCCC1 (stereo unspecified)
LD50: 1370 mg/kg

Nc1cccc(C(O)CNC2CC2)c1 (stereo unspecified)
LD50: 3250 mg/kg

CC1(COCCOCC2(C)CO2)CO1 (stereo unspecified)
LD50: 7460 mg/kg

Fc1cc(Br)c2nc(C(F)(F)F)[nH]c2c1
LD50: 5.65 mg/kg

CC(C)(C)C(=O)CC#N
LD50: 283 mg/kg

CN(CCn1cnc2c1c(=O)n(C)c(=O)n2C)C1CCCCC1
LD50: 2880 mg/kg

Cc1cnccc1N
LD50: 446 mg/kg

CN(C)N=Nc1nc[nH]c1C(N)=O
LD50: 2150 mg/kg

CN1CCN(CCCN2c3ccccc3Sc3ccc(C(F)(F)F)cc32)CC1
LD50: 543 mg/kg

O=C1C(I)=CC(=C(c2cc(I)c(O)c(I)c2)c2ccccc2C(=O)O)C=C1I
LD50: 2800 mg/kg

Cc1c(N)nc(C)c2c1[nH]c1ccccc12
LD50: 100 mg/kg

CCc1ccc2nc(C(F)(F)F)[nH]c2c1
LD50: 28 mg/kg

CC(=O)CCc1ccccc1
LD50: 3200 mg/kg

CC1=C(C(=O)OCCN2CCN(C(c3ccccc3)c3ccccc3)CC2)C(c2cccc([N+](=O)[O-])c2)C(P2(=O)OCC(C)(C)CO2)=C(C)N1 (stereo unspecified)
LD50: 194 mg/kg

C=C(C)C(=O)OCCO
LD50: 5620 mg/kg

CCCCCCCCCCCCOC(=O)CS(=O)(=O)O
LD50: 700 mg/kg

N#Cc1ccccc1Cl
LD50: 396 mg/kg

Cc1nc2sccn2c1/C=N/NC(=O)CN(C)C
LD50: 1500 mg/kg

C=CCC1=C(C)[C@@H](OC(=O)[C@@H]2[C@@H](C=C(C)C)C2(C)C)CC1=O
LD50: 430 mg/kg

Cc1cc(C(C)(C)CC(C)(C)C)ccc1OCCOCC[N+](C)(C)Cc1ccccc1
LD50: 800 mg/kg

C=CCON/C(CCC)=C1\C(=O)CC(C)(C)C(C(=O)OC)=C1O
LD50: 2260 mg/kg

FC(F)(F)C(F)(Br)Br
LD50: 54600 mg/kg

CCCCCCCCCCCC[n+]1ccc2ccccc2c1
LD50: 230 mg/kg

COc1ccc2cc(C(C)C(=O)OCC(O)CO)ccc2c1 (stereo unspecified)
LD50: 1630 mg/kg

Cc1ccc(C(=O)c2cccc3c2CCC3C(=O)O)cc1 (stereo unspecified)
LD50: 244 mg/kg

CCOP(=O)(OCC)SC=C(Cl)Cl
LD50: 1.75 mg/kg

CCc1cnc(C(=O)O)c(C(=O)O)c1
LD50: 3350 mg/kg

NC(N)=[Se]
LD50: 50 mg/kg

O=C1CCc2cc(C=CCCN3CCN(c4ccccc4)CC3)ccc2N1
LD50: 500 mg/kg

COC(=O)C1=C(C)NC(C)=C(C(=O)O[C@@H]2CCCN(Cc3ccccc3)C2)[C@@H]1c1cccc([N+](=O)[O-])c1 (racemic)
LD50: 87.6 mg/kg

Cc1cc(NC(=O)c2ccccc2O)n(-c2ccccc2)n1
LD50: 1320 mg/kg

CCCCCCCCCCCCCCCCCC1=NCCN1CCO
LD50: 3800 mg/kg

CCCCCCCCOC(C[n+]1ccccc1)c1ccc(C2CCCC2)cc1 (stereo unspecified)
LD50: 250 mg/kg

COP(=S)(OC)Oc1ccc(S(C)(=O)=O)c(C)c1
LD50: 125 mg/kg

CCCC[P+](CCCC)(CCCC)CCCC
LD50: 916 mg/kg and 420 mg/kg

O=C(Cl)c1ccc(Oc2ccc(C(=O)Cl)cc2)cc1
LD50: 8700 mg/kg

CC(C)NCC(O)COc1ccccc1C1CCCCC1 (stereo unspecified)
LD50: 1850 mg/kg

COP(=S)(Oc1ccc([N+](=O)[O-])cc1)OC(C)C (stereo unspecified)
LD50: 5 mg/kg

CC(C)=CC1C(C(=O)OCc2cc3c(cc2Cl)OCO3)C1(C)C (stereo unspecified)
LD50: 15000 mg/kg
